How the values were obtained:
HeLa = test: MTS proliferation assay, HeLa; assay type: cell-based, human; details: 72 h incubation, read-out: MTS proliferation assay IC 50 HeLa
Summary of the method: (§1)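 A 72 h exposure to compound (final 0.3–10 μM, four levels) was followed by 3 h MTS incubation and an A492 read.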

Jurkat = test: MTS proliferation assay, Jurkat; assay type: cell-based, human; details: 72 h incubation, read-out: MTS proliferation assay IC 50 Jurkat
Summary of the method: as §1

HT1080 = test: MTS proliferation assay, HT1080; assay type: cell-based, human; details: HT1080, 72 h incubation; read-out: MTS proliferation assay IC 50 HT1080
Experimental: (§2) Cell lines are cultured in RPMI-1640 tissue culture medium containing either 5% or 10% fetal calf serum, 0.05 mM 2-mercaptoethanol, 2 mM glutamine and penicillin/streptomycin 50 μg/ml (complete medium) (Sigma, Buchs, Switzerland). General growth conditions are 37° C. and 7.5% CO2.
The following human cell lines (either EGFP transfected or not) are being used: HeLa (ATCC: CCL-2), KB (ATCC: CCL-17), MCF7 (ATCC: HTB-22), SK-BR-3 (ATCC: HTB-30), SK-Mel 1 (ATCC: HTB-67), SK-Mel 28 (ATCC: HTB-72), PC-3 (ATCC: CRL-1435), SW 480 (ATCC: CCL-228), NCl-H460 (ATCC: HTB-177), NCl-H1792 (ATCC: CRL-5895), HT1080 (ATCC: CCL-21), Jurkat (ATCC: TIB-152), Ramos (ATCC: CRL-1596), Raji (ATCC: CCL-86), H9 (ATCC: HTB-176), Hut78 (ATCC: TIB-161), K562 (ATCC: CCL 243), HL-60 (ATCC: CCL 240), U-87MG (ATCC: HTB-14), HepG2 (ATCC: HB-8065), U-2 OS (ATCC: HTB-96), Saos-2 (ATCC: HTB-85), U937 (ATCC: CRL 1593), Hs 578T (ATCC: HTB 126), HBL-100 (ATCC: HTB 124), Molt-4 (ATCC: CRL 1582).
The assay is performed in 96 well tissue culture plates. The cells (range: 1.5*10^3-10^4) are seeded out in 80 μl complete medium 24 h prior to compound treatment. The test compounds are added in 20 μl complete medium containing max 5% DMSO. The final compound concentrations in the assays are 10 μM, 3 μM, 1 μM and 0.3 μM, respectively. The assay plates are incubated for 72 h at culture conditions. The MTS reagent is prepared according to the manufacturer's protocol (Promega G1111). 20 μl MTS reagent are added to each well, the assay plates are quickly spun and incubated for another 3 h at culture conditions. Subsequently, the plates are shortly shaked and absorption measured with a microplate-reader at 492 nm.

[1] = system: adherent cells or suspension cells; test: Hoechst 33342 nuclear staining (fraction of apoptotic nuclei); assay type: cell-based; parameters: key: 0 relating to no activity; 1 relating to weak activity comprising less than 70% of the cells; score 2 relating to strong activity comprising more than 70% of the cells
Experimental: as §2
This assay is performed in 96 well tissue culture plates. Appropriate number of cells (adherent cells: 3-5*10^3, suspension cells: 8-10*10^3) are being seeded out in 80 μl complete medium. Adherent cells are incubated for 24 h for proper spreading out before addition of test compounds while suspension cells are immediately treated with test compounds after seeding out. The test compounds are added in 20 μl complete medium containing max 5% DMSO. […] After 24 h or 48 h incubation at culture conditions, 10 μl medium containing Hoechst 33342 dye (Sigma B-2261) at 2-5 μg/ml are added to each well. The assay plates are then further incubated for 30 minutes and subsequently analyzed with a standard inverted fluorescence microscope.
The readout allows the determination of the fraction of apoptotic nuclei as well as other morphological criteria specific for apoptosis as a function of the treatment. The following scores are used: 0 relating to no activity, 1 relating to weak activity comprising less than 70% of the cells and score 2 relating to strong activity comprising more than 70% of the cells.

MRC5 = test: MTS proliferation assay, MRC5; assay type: cell-based; details: MRC5, 72 h incubation; read-out: MTS proliferation assay IC 50 MRC5
Summary of the method: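 Proliferation is followed by MTS conversion, measured as absorbance at 492 nm. Cells are exposed for 72 h to four fixed compound concentrations (10 μM down to 0.3 μM) under 37° C, 7.5% CO2 culture conditions.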

SMILES	IC50 (HeLa) [nM]	IC50 (Jurkat) [nM]	IC50 (HT1080) [nM]	Hoechst 33342 nuclear staining score ([1]; H460, conc 0.01 μm)	Hoechst 33342 nuclear staining score ([1]; H460, conc 0.1 μm)	Hoechst 33342 nuclear staining score ([1]; H460, conc 1 μm)	Hoechst 33342 nuclear staining score ([1]; HeLa, conc 0.01 μm)	Hoechst 33342 nuclear staining score ([1]; HeLa, conc 0.1 μm)	Hoechst 33342 nuclear staining score ([1]; HeLa, conc 1 μm)	Hoechst 33342 nuclear staining score ([1]; Jily, conc 0.01 μm)	Hoechst 33342 nuclear staining score ([1]; Jily, conc 0.1 μm)	Hoechst 33342 nuclear staining score ([1]; Jily, conc 1 μm)	Hoechst 33342 nuclear staining score ([1]; Jurkat, conc 0.01 μm)	Hoechst 33342 nuclear staining score ([1]; Jurkat, conc 0.1 μm)	Hoechst 33342 nuclear staining score ([1]; Jurkat, conc 1 μm)	Hoechst 33342 nuclear staining score ([1]; MRC5, conc 0.01 μm)	Hoechst 33342 nuclear staining score ([1]; MRC5, conc 0.1 μm)	Hoechst 33342 nuclear staining score ([1]; MRC5, conc 1 μm)	Hoechst 33342 nuclear staining score ([1]; PBLs, conc 0.01 μm)	Hoechst 33342 nuclear staining score ([1]; PBLs, conc 0.1 μm)	further results
COc1ccc(C(=O)Cn2c(-c3nonc3N)nc3cc(C)c(C)cc32)cc1 [Example 111]	> 1000	> 1000	> 1000	0	0	0	0	0	0	0	0	0	0	0	0	0	0	0	0	0	Hoechst 33342 nuclear staining score ([1]; PBLs, conc 1 μm): 0; IC50 (MRC5): > 1000 nM
Cc1cc2nc(-c3nonc3N)n(CC(=O)c3ccc(-c4ccccc4)cc3)c2cc1C [Example 112]	> 1000	> 1000	> 1000	0	0	0	0	0	0	0	0	0	0	0	0	0	0	0	0	0	Hoechst 33342 nuclear staining score ([1]; PBLs, conc 1 μm): 0; IC50 (MRC5): > 1000 nM
COc1cc2nc(-c3nonc3N)n(CC(=O)c3ccc(Cl)cc3)c2cc1OC [Example 114]	> 1000	> 1000	> 1000	0	0	0	0	0	0	0	0	0	0	0	0	0	0	0	0	0	Hoechst 33342 nuclear staining score ([1]; PBLs, conc 1 μm): 0; IC50 (MRC5): > 1000 nM

From patent USRE42890E1, “Furazanobenzimidazoles” (Basilea Pharmaceutica AG, priority 2003, dated 2011)
